“And” between values parts separate entries of the source, which are not always exact repeats. Identical values can stand only once.
What was measured:
Test in all cases: Kinase inhibition screen, cell-free 33P ATP assay at 10 μM
Assay type in all cases: biochemical
[1] = biological target: 140 purified human kinases (Homo sapiens, UniProt Q13177)
Method in brief: (§1)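 Radiometric ^33P ATP cell-free format with purified enzymes; both complexes run at 10 μM in duplicate, results plotted on a kinome map via HGNC symbols.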

[2] = biological target: 140 purified human kinases (Homo sapiens, UniProt P78368)
140 purified human kinases (Homo sapiens, UniProt P78368), sequence (P78368 whole entry): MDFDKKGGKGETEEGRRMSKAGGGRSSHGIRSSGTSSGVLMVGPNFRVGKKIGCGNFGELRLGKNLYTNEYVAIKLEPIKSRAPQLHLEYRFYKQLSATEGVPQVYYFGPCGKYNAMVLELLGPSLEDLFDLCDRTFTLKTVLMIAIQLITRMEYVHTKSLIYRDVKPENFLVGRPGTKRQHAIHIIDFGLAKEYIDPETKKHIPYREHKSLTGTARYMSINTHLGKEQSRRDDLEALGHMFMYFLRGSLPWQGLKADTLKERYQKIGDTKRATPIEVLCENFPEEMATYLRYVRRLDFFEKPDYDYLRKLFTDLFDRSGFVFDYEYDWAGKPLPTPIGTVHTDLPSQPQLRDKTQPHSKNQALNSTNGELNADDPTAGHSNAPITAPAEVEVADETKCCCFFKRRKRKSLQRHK
Method in brief: as §1

[3] = biological target: 140 purified human kinases (Homo sapiens, UniProt Q86Z02)
140 purified human kinases (Homo sapiens, UniProt Q86Z02), sequence (Q86Z02 whole entry): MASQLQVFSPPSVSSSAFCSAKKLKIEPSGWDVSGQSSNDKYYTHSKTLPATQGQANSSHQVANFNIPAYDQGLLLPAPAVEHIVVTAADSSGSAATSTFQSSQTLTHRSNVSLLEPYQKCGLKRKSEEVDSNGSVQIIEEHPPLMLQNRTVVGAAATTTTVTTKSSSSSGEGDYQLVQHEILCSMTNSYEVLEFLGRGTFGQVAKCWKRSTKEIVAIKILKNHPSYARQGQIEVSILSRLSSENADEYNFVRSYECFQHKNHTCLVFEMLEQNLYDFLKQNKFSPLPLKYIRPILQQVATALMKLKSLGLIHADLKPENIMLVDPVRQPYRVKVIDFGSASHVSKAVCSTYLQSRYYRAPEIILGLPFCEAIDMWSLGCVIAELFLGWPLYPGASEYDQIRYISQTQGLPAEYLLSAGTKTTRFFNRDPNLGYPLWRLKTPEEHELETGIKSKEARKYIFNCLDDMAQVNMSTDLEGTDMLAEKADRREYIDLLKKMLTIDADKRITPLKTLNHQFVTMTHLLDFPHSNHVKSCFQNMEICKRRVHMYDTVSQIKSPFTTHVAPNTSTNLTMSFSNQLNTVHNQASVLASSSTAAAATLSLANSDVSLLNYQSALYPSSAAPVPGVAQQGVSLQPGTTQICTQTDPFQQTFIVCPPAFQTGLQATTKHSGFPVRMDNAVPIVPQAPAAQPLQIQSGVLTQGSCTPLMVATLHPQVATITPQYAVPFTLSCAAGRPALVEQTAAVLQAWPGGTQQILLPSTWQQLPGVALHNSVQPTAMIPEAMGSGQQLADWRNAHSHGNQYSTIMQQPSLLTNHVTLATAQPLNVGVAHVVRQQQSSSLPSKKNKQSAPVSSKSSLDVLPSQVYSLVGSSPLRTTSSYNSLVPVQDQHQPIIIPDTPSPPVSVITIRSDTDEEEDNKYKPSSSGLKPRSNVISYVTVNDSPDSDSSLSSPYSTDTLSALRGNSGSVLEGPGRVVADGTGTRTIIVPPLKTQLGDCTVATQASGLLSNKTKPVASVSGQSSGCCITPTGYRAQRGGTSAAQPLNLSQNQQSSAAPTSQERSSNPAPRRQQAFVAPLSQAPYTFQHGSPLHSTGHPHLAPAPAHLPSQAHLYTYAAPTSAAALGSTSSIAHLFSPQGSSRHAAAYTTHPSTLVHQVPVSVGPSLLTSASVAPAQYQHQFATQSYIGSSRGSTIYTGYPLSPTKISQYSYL
Method in brief: as §1

[4] = biological target: 140 purified human kinases (Homo sapiens, UniProt P36507)
140 purified human kinases (Homo sapiens, UniProt P36507), sequence (P36507 whole entry): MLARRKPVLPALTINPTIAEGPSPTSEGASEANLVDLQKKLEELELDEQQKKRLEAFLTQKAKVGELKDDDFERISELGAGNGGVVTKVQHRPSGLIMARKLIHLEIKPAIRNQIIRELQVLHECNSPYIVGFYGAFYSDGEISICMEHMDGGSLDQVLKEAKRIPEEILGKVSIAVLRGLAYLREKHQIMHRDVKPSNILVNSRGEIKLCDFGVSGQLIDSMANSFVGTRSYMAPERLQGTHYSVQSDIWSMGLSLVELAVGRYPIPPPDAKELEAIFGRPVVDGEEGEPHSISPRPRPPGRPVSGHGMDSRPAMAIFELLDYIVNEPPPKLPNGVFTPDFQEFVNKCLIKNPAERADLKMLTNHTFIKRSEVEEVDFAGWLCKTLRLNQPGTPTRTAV
Method in brief: as §1

[5] = biological target: T1, 140 purified human kinases (Homo sapiens, UniProt P52333)
T1 sequence (P52333 1-1124): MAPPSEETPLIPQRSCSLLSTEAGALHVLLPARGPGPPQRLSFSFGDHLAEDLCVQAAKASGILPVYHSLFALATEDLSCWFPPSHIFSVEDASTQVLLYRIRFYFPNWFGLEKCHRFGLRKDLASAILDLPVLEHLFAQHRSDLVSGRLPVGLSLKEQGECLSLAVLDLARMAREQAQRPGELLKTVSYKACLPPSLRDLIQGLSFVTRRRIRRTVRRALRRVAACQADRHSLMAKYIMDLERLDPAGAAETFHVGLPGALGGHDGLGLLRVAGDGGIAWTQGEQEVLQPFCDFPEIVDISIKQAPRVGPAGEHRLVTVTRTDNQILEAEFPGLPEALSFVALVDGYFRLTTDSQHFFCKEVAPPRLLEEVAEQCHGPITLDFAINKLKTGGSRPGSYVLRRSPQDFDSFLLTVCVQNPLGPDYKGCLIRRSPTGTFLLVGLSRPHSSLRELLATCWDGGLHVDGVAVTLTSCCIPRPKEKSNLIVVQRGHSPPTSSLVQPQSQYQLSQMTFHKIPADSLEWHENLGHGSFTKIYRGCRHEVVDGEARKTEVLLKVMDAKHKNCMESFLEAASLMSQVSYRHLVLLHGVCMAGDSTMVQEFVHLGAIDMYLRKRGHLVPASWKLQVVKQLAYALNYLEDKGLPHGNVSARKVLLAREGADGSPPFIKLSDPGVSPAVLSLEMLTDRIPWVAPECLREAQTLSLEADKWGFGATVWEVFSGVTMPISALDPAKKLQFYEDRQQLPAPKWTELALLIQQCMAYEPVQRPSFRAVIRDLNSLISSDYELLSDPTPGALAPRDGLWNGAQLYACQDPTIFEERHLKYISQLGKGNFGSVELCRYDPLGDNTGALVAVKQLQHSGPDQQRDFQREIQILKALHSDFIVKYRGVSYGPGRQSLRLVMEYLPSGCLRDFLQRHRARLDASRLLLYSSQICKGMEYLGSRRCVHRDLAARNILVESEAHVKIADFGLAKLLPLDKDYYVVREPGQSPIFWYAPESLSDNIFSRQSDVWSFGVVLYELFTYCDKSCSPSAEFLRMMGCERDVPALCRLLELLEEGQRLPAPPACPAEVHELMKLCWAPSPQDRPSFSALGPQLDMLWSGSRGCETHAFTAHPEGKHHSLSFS
Method in brief: as §1

[6] = biological target: 140 purified human kinases (Homo sapiens, UniProt O75716)
140 purified human kinases (Homo sapiens, UniProt O75716), sequence (O75716 whole entry): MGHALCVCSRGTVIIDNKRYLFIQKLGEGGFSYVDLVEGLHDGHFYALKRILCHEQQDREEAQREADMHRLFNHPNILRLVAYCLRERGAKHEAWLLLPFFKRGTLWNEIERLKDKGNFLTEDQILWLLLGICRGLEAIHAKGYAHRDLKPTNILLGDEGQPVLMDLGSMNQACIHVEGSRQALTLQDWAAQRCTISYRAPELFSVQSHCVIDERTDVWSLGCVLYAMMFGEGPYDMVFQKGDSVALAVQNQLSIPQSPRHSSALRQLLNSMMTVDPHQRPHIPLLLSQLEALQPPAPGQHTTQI
Method in brief: as §1

[7] = biological target: 140 purified human kinases (Homo sapiens, UniProt Q9Y2K2)
140 purified human kinases (Homo sapiens, UniProt Q9Y2K2), sequence (Q9Y2K2 whole entry): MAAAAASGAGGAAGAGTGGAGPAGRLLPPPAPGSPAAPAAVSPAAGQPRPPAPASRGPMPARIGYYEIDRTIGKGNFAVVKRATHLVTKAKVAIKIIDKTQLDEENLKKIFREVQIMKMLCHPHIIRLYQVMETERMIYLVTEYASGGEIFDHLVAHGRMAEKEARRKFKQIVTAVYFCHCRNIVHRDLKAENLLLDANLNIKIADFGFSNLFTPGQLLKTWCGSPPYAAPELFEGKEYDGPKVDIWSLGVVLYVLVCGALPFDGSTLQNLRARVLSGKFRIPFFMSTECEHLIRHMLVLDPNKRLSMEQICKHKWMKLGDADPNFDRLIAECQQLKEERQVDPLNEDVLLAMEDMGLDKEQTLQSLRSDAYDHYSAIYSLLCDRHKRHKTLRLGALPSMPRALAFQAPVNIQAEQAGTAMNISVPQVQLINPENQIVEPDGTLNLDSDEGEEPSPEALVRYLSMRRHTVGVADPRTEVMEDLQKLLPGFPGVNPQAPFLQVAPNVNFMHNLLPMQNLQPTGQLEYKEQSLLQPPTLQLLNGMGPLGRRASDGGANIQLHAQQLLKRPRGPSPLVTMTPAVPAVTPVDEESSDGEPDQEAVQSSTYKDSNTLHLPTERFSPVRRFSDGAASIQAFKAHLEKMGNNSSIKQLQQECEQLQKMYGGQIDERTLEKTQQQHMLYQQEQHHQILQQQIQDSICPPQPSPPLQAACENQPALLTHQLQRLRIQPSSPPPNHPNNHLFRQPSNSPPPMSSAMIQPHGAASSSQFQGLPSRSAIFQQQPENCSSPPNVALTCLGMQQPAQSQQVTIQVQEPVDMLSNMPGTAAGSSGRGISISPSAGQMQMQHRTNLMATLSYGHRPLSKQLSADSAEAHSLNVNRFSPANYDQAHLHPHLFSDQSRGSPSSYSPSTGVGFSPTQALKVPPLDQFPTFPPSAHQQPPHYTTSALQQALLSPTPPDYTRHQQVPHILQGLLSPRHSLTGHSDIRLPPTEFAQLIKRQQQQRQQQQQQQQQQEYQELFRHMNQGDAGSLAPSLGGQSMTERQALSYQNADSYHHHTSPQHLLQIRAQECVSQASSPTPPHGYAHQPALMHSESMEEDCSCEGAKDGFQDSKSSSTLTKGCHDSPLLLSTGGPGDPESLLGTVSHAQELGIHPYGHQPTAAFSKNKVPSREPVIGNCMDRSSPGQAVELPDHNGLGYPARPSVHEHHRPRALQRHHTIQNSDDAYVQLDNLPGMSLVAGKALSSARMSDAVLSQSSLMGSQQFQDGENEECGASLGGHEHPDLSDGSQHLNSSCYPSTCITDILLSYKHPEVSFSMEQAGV
Method in brief: as §1

[8] = biological target: 140 purified human kinases (Homo sapiens, UniProt P00519); details: ABL
Method in brief: as §1

[9] = biological target: 140 purified human kinases (Homo sapiens, UniProt P51617)
140 purified human kinases (Homo sapiens, UniProt P51617), sequence (P51617 whole entry): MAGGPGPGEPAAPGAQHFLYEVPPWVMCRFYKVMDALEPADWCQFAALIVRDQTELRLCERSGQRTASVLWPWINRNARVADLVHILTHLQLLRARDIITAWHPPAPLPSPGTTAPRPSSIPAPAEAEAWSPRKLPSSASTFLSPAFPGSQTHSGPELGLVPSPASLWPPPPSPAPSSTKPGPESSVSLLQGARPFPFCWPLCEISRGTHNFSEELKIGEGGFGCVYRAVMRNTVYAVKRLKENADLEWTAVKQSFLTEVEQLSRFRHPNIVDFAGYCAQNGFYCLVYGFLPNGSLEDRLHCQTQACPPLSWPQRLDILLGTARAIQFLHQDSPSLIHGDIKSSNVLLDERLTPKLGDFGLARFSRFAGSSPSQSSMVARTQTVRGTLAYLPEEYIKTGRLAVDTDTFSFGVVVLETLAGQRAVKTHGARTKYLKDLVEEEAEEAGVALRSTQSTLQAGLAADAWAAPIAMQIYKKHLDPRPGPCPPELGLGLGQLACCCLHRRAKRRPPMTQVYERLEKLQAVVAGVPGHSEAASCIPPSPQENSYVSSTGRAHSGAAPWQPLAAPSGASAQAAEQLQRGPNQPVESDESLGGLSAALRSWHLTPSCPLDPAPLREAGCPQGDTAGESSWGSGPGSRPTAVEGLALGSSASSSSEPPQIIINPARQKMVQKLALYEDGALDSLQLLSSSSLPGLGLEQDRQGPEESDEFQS
Method in brief: as §1

140 purified human kinases (Homo sapiens, UniProt Q13177), sequence (Q13177 whole entry): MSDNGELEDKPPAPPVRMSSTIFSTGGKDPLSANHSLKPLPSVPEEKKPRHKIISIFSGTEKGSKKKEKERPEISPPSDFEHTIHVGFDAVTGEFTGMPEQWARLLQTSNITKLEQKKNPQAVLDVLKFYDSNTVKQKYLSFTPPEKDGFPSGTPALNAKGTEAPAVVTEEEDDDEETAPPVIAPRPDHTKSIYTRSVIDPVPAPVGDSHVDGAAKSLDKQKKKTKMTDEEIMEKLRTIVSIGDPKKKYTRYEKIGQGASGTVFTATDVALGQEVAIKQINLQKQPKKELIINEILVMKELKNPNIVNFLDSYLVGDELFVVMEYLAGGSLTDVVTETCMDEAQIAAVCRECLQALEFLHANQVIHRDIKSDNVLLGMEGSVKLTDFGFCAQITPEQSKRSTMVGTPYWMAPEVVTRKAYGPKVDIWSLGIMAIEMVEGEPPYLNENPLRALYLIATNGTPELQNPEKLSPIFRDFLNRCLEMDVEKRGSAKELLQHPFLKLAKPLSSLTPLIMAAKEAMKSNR

[Cu+2].[Cu+2].[Cu+2].c1ccc(-c2csc(NCCN(CCNc3nc(-c4ccccn4)cs3)CCNc3nc(-c4ccccn4)cs3)n2)nc1.c1ccc(-c2csc(NCCN(CCNc3nc(-c4ccccn4)cs3)CCNc3nc(-c4ccccn4)cs3)n2)nc1 [[L2Cu3]6+]
% Inhibition Run 1 ([1]; PAK2): 44.4%
% Inhibition Run 2 ([1]; PAK2): 32.1%
% Inhibition, Mean ([1]; PAK2): 38%
mean % activity ([1]; PAK2): 62%
% activity ([1]; PAK2, Run 1): 55.6%
% activity ([1]; PAK2, Run 2): 67.9%
% Inhibition Run 1 ([2]; CK1γ2): 23.7%
% Inhibition Run 2 ([2]; CK1γ2): 10.8%
% Inhibition, Mean ([2]; CK1γ2): 17%
mean % activity ([2]; CK1γ2): 83%
% activity ([2]; CK1γ2, Run 1): 76.3%
% activity ([2]; CK1γ2, Run 2): 89.2%
% Inhibition Run 1 ([3]; HIPK1): 90.8%
% Inhibition Run 2 ([3]; HIPK1): 84.1%
% Inhibition, Mean ([3]; HIPK1): 87%
mean % activity ([3]; HIPK1): 13%
% activity ([3]; HIPK1, Run 1): 9.2%
% activity ([3]; HIPK1, Run 2): 15.9%
% Inhibition Run 1 ([4]; MKK2): 70.5%
% Inhibition Run 2 ([4]; MKK2): 79%
% Inhibition, Mean ([4]; MKK2): 75%
mean % activity ([4]; MKK2): 25%
% activity ([4]; MKK2, Run 1): 29.5%
% activity ([4]; MKK2, Run 2): 21%
% Inhibition Run 1 ([5]; JAK3): 39.3%
% Inhibition Run 2 ([5]; JAK3): 44.6%
% Inhibition, Mean ([5]; JAK3): 42%
mean % activity ([5]; JAK3): 58%
% activity ([5]; JAK3, Run 1): 60.7%
% activity ([5]; JAK3, Run 2): 55.4%
% Inhibition Run 1 ([6]; MPSK1): 71.3%
% Inhibition Run 2 ([6]; MPSK1): 60%
% Inhibition, Mean ([6]; MPSK1): 66%
mean % activity ([6]; MPSK1): 34%
% activity ([6]; MPSK1, Run 1): 28.7%
% activity ([6]; MPSK1, Run 2): 40%
% Inhibition Run 1 ([7]; SIK3): 48.7%
% Inhibition Run 2 ([7]; SIK3): 52.1%
% Inhibition, Mean ([7]; SIK3): 50%
mean % activity ([7]; SIK3): 50%
% activity ([7]; SIK3, Run 1): 51.3%
% activity ([7]; SIK3, Run 2): 47.9%
% Activation, Mean value [8]: 17%
% Inhibition Run 1 [8]: -27.4%
% Inhibition Run 2 [8]: -7.5%
% Inhibition, Mean [8]: -17%
mean % activity [8]: 117%
% activity ([8]; Run 1): 127.4%
% activity ([8]; Run 2): 107.5%
% Activity Run 1 ([8]; 10 µM): 127.40%
% Activity Run 2 ([8]; 10 µM): 107.50%
% Inhibition Run 1 ([9]; IRAK1): 41.6%
% Inhibition Run 2 ([9]; IRAK1): 44.4%
% Inhibition, Mean ([9]; IRAK1): 43%
mean % activity ([9]; IRAK1): 57%
% activity ([9]; IRAK1, Run 1): 58.4%
% activity ([9]; IRAK1, Run 2): 55.6%

CC(=O)[O-].CC(=O)[O-].CC(=O)[O-].CC(=O)[O-].CC(=O)[O-].CC(=O)[O-].[Zn+2].[Zn+2].[Zn+2].c1ccc(-c2csc(NCCN(CCNc3nc(-c4ccccn4)cs3)CCNc3nc(-c4ccccn4)cs3)n2)nc1.c1ccc(-c2csc(NCCN(CCNc3nc(-c4ccccn4)cs3)CCNc3nc(-c4ccccn4)cs3)n2)nc1 [[L2Zn3]6+]
% Inhibition, Mean ([1]; PAK2): 22%
% Inhibition, Run 1 / Run 2 ([1]; PAK2): 23% and 21%
mean % activity ([1]; PAK2): 78%
% activity ([1]; PAK2, duplicate runs): 77% and 79%
% Inhibition, Mean ([2]; CK1γ2): 12%
mean % activity ([2]; CK1γ2): 88%
% activity ([2]; CK1γ2, duplicate runs): 82% and 94%
% Inhibition, Mean ([3]; HIPK1): 14%
mean % activity ([3]; HIPK1): 86%
% activity ([3]; HIPK1, duplicate runs): 92% and 81%
% Inhibition, Mean ([4]; MKK2): 42%
% Inhibition, Run 1 / Run 2 ([4]; MKK2): 40% and 45%
mean % activity ([4]; MKK2): 58%
% activity ([4]; MKK2, duplicate runs): 60% and 55%
% Inhibition, Mean ([5]; JAK3): 17%
mean % activity ([5]; JAK3): 83%
% activity ([5]; JAK3, duplicate runs): 66% and 99%
% Inhibition, Mean ([6]; MPSK1): 22%
mean % activity ([6]; MPSK1): 79%
% activity ([6]; MPSK1, duplicate runs): 71% and 86%
% Inhibition, Mean ([7]; SIK3): 39%
% Inhibition, Run 1 / Run 2 ([7]; SIK3): 45% and 33%
mean % activity ([7]; SIK3): 61%
% activity ([7]; SIK3, duplicate runs): 55% and 67%
% Inhibition, Mean [8]: 9%
mean % activity [8]: 91%
% activity ([8]; duplicate runs): 81% and 100%
% Inhibition, Mean ([9]; IRAK1): 11%
mean % activity ([9]; IRAK1): 89%
% activity ([9]; IRAK1, duplicate runs): 97% and 81%
